How the values were obtained:
Assay type in all cases: in vivo
[1] = system: Carpocapsa (Cydia) pomonella; test: Example B10: Carpocapsa (Cydia) pomonella (codling moth), larvicide, feeding/contact, diet cubes; details: 336 h, L1 larvae, 14 days after infestation, read-out: effect in at least one of the two categories (mortality or growth inhibition)
Method: Diet cubes coated with paraffin were sprayed with diluted test solutions in an application chamber. After drying off the treated cubes (10 replicates) were infested with 1 L1 larvae. Samples were incubated at 26-27° C. and checked 14 days after infestation for mortality and growth inhibition. The following compounds gave an effect of at least 80% in at least one of the two categories (mortality or growth inhibition) at an application rate of 50 ppm: […]

Spodoptera littoralis = test: Example B6: activity against Spodoptera littoralis (Egyptian cotton leaf worm), cotton leaf discs; details: foliar, 72 h, 200 ppm, L1 larvae, 3 days after infestation, read-out: control (at least one of mortality, anti-feedant effect, growth inhibition)
Procedure, shortened: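 Spray application onto agar-supported cotton leaf discs used aqueous solutions derived from 10′000 ppm DMSO stocks. Once dry, discs were infested with five L1 larvae and evaluated after 3 days for mortality, anti-feeding and growth inhibition relative to untreated controls.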

Pseudoplusia includens = test: Example B9: Pseudoplusia includens (soybean looper), larvicide, feeding/contact, soybean plants; details: Chrysodeixis includens; for percent effect (mortality or growth inhibition) at 50 ppm: 120 h, L2 larvae, 5 days after infestation, read-out: effect in at least one of the two categories (mortality or growth inhibition)
Procedure, shortened: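 Soybean plants sprayed, cut and held in dishes on wet filter paper; infested 1 d after application with 5 L2 larvae. Mortality and growth inhibition assessed 5 days after infestation; tested at 50 ppm.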

Euschistus heros = test: Example B3: activity against Euschistus heros (neotropical brown stink bug), soybean leaves; details: for percent effect (mortality or growth inhibition) at 200 ppm: 120 h, N2 nymphs, 5 days after infestation, read-out: effect in at least one of the two categories (mortality or growth inhibition)
Method: Soybean leaves on agar in 24-well microtiter plates were sprayed with aqueous test solutions prepared from 10′000 ppm DMSO stock solutions. After drying the leaves were infested with N2 nymphs. The samples were assessed for mortality and growth inhibition in comparison to untreated samples 5 days after infestation. The following compounds gave an effect of at least 80% in at least one of the two categories (mortality or growth inhibition) at an application rate of 200 ppm: […]

Diabrotica balteata = test: Example B2: activity against Diabrotica balteata (corn root worm), maize sprouts; details: 96 h, L2 larvae, 4 days after infestation, read-out: effect in at least one of the two categories (mortality or growth inhibition)
Procedure, shortened: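 At 200 ppm, test solutions diluted in water from 10′000 ppm DMSO stocks were spray-applied to maize sprouts set on agar. Once dry, each well received 6–10 second-instar larvae. Four days later, mortality and growth inhibition were compared with untreated controls.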

Plutella xylostella [2] = test: Example B5: activity against Plutella xylostella (diamond back moth), artificial diet, eggs; details: 192 h, 8 days after infestation, read-out: effect in at least one of the two categories (mortality or growth inhibition)
Procedure, shortened: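 Scoring at 8 days post-infestation compared mortality and growth inhibition with untreated controls, on diet treated at 200 ppm with water-diluted DMSO stock solutions. Diamondback moth eggs were placed on the dried diet in 24-well plates.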

Chilo suppressalis = test: Example B1: activity against Chilo suppressalis (striped rice stemborer), artificial diet; details: 144 h, 200 ppm, L2 larvae, 6 days after infestation, read-out: control (at least one of mortality, anti-feedant effect, growth inhibition)
Procedure, shortened: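 Diet-incorporation surface assay: aqueous dilutions of 10'000 ppm DMSO stock applied to artificial diet, dried; 6-8 L2 larvae/well; read day 6 post-infestation for mortality, antifeedant effect, growth inhibition vs untreated. Active if any category above untreated.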

Myzus persicae [3] = test: Example B4: activity against Myzus persicae (green peach aphid), intrinsic activity; details: 120 h, test rate 12 ppm, 5 days after infestation
Procedure, shortened: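 Mortality was read 5 days after infestation. Aphids on pea seedlings fed through a stretched Parafilm membrane on inverted 24-well plates containing sucrose solution mixed with test compound, which was diluted from 10′000 ppm DMSO stock.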

Plutella xylostella [4] = test: B14b: Plutella xylostella (diamond back moth), larvicide L3, feeding/contact, Chinese cabbage
Description: Activity of compounds P5, P17 and P21 according to the preparatory examples and of a compound from WO 21/083936 against Spodoptera littoralis (Example B6 above), Chilo suppressalis (Example B1 above), Diabrotica balteata (Example B14a below), Plutella xylostella (Example B14b below) and Pseudoplusia includens (Example B9 above) is summarized in Table B14. B14a: Diabrotica balteata (Corn root worm). Larvicide, feeding/contact 3 Corn seedlings were placed on wetted filter paper in plastic cups, and 3 ml of diluted test solutions were pipetted onto them. The cups were infested with 10 L2 larvae and checked for mortality and growth regulation 5 days after treatment. B14b: Plutella xylostella (Diamond back moth). Larvicide L3, feeding/contact Chinese cabbage plants were sprayed with diluted test solutions in an application chamber. Cut off leaves were placed into petri dishes with wetted filter paper and infested 1 day after application with 10 L3 larvae. Samples were assessed 4 days after infestation for mortality and growth regulation.

Myzus persicae [5] = test: Example B7a: Myzus persicae feeding/contact activity, sunflower leaf discs; details: foliar, 144 h, mixed ages, 6 days after infestation
Method: (§1) Sunflower leaf discs were placed onto agar in a 24-well microtiter plate and sprayed with aqueous test solutions prepared from 10′000 ppm DMSO stock solutions. After drying, the leaf discs were infested with an aphid population of mixed ages. The samples were assessed for mortality 6 days after infestation.

Myzus persicae [6] = test: Example B7b: Myzus persicae feeding/contact activity, eggplant leaf discs; details: foliar, 144 h, mixed ages, 6 days after infestation
Method: as §1, with “Eggplant” for “Sunflower”

Row | SMILES | percent effect (mortality or growth inhibition) at 50 ppm [1] [%] | percent control (mortality, anti-feedant effect or growth inhibition) at 200 ppm (Spodoptera littoralis) [%] | percent effect (mortality or growth inhibition) at 50 ppm (Pseudoplusia includens) [%] | percent effect (mortality or growth inhibition) at 200 ppm (Euschistus heros) [%] | percent effect (mortality or growth inhibition) at 200 ppm (Diabrotica balteata) [%] | percent effect (mortality or growth inhibition) at 200 ppm (Plutella xylostella [2]) [%] | percent control (mortality, anti-feedant effect or growth inhibition) at 200 ppm (Chilo suppressalis) [%] | mortality at 12 ppm (Myzus persicae [3]) [%] | mortality at 3 ppm (Pseudoplusia includens; Pseudoplusia includens) [%] | mortality at 3 ppm (Plutella xylostella [4]) [%] | mortality at 200 ppm (Euschistus heros) [%] | mortality at 200 ppm (Myzus persicae [5]) [%] | mortality at 200 ppm (Myzus persicae [6]) [%] | mortality at 0.8 ppm (Plutella xylostella [4]) [%] | mortality at 0.8 ppm (Pseudoplusia includens; Pseudoplusia includens, 0.8 ppm) [%]
1 | C[C@H](Nc1ncnc2c(C(F)(F)F)cc(I)cc12)c1ncnn1-c1cc(C(N)=O)ncn1 [Compound P1, 6-[5-[(1S)-1-[[6-iodo-8-(trifluoromethyl)quinazolin-4-yl]amino]ethyl]-1,2,4-triazol-1-yl]pyrimidine-4-carboxamide] | ≥ 80 | ≥ 80 | ≥ 80 | ≥ 80 | ≥ 80 | ≥ 80 | ≥ 80 | ≥ 80 | – | – | – | – | – | – | –
2 | CNC(=O)c1cc(-n2ncnc2[C@H](C)Nc2ncnc3c(C(F)(F)F)cc(Cl)cc23)ncn1 [Compound P3, 6-[5-[(1S)-1-[[6-chloro-8-(trifluoromethyl)quinazolin-4-yl]amino]ethyl]-1,2,4-triazol-1-yl]-N-methyl-pyrimidine-4-carboxamide] | ≥ 80 | ≥ 80 | ≥ 80 | ≥ 80 | ≥ 80 | ≥ 80 | ≥ 80 | ≥ 80 | – | – | – | – | – | – | –
3 | C[C@H](Nc1ncnc2c(Br)cc(Br)cc12)c1ncnn1-c1cc(C(N)=O)ncn1 [Compound P10, 6-[5-[(1S)-1-[(6,8-dibromoquinazolin-4-yl)amino]ethyl]-1,2,4-triazol-1-yl]pyrimidine-4-carboxamide] | ≥ 80 | ≥ 80 | ≥ 80 | – | ≥ 80 | ≥ 80 | ≥ 80 | ≥ 80 | 80 | 100 | 0 | – | – | – | –
4 | C[C@H](Nc1ncnc2c(I)cc(Cl)cc12)c1ncnn1-c1ncc(C(N)=O)s1 [Compound P29, 2-[5-[(1S)-1-[(6-chloro-8-iodo-quinazolin-4-yl)amino]ethyl]-1,2,4-triazol-1-yl]thiazole-5-carboxamide] | – | ≥ 80 | – | – | ≥ 80 | ≥ 80 | ≥ 80 | ≥ 80 | – | – | – | ≥ 80 | – | – | –
5 | C[C@H](Nc1ncnc2c(C(F)(F)F)cc(Cl)cc12)c1ncnn1-c1cc(C(=O)NCC#N)ncn1 [Compound P38, 6-[5-[(1S)-1-[[6-chloro-8-(trifluoromethyl)quinazolin-4-yl]amino]ethyl]-1,2,4-triazol-1-yl]-N-(cyanomethyl)pyrimidine-4-carboxamide] | – | ≥ 80 | ≥ 80 | ≥ 80 | ≥ 80 | ≥ 80 | ≥ 80 | ≥ 80 | – | – | – | – | ≥ 80 | – | –
6 | C[C@@H](c1ncnn1-c1cc(C(=O)NCC#N)ncn1)N(C)c1ncnc2c(C(F)(F)F)cc(Cl)cc12 [Compound P52, 6-[5-[(1S)-1-[[6-chloro-8-(trifluoromethyl)quinazolin-4-yl]-methyl-amino]ethyl]-1,2,4-triazol-1-yl]-N-(cyanomethyl)pyrimidine-4-carboxamide] | – | ≥ 80 | ≥ 80 | ≥ 80 | ≥ 80 | ≥ 80 | ≥ 80 | ≥ 80 | – | – | – | – | ≥ 80 | – | –
7 | C[C@@H](c1ncnn1-c1cc(C(=O)NCCC#N)ncn1)N(C)c1ncnc2c(C(F)(F)F)cc(Cl)cc12 [Compound P53, 6-[5-[(1S)-1-[[6-chloro-8-(trifluoromethyl)quinazolin-4-yl]-methyl-amino]ethyl]-1,2,4-triazol-1-yl]-N-(2-cyanoethyl)pyrimidine-4-carboxamide] | ≥ 80 | ≥ 80 | ≥ 80 | – | ≥ 80 | ≥ 80 | ≥ 80 | ≥ 80 | – | – | – | – | – | – | –
8 | CCN(C)C(=O)c1cc(-n2ncnc2[C@H](C)N(C)c2ncnc3c(C(F)(F)F)cc(Cl)cc23)ncn1 [Compound P55, 6-[5-[(1S)-1-[[6-chloro-8-(trifluoromethyl)quinazolin-4-yl]-methyl-amino]ethyl]-1,2,4-triazol-1-yl]-N-ethyl-N-methyl-pyrimidine-4-carboxamide] | – | ≥ 80 | ≥ 80 | ≥ 80 | ≥ 80 | ≥ 80 | ≥ 80 | ≥ 80 | – | – | – | – | ≥ 80 | – | –
9 | CNC(=O)c1cc(-n2ncnc2[C@H](C)N(C)c2ncnc3c(S(=O)(=O)C(F)(F)F)cc(Cl)cc23)ncn1 [Compound P61] | – | ≥ 80 | ≥ 80 | ≥ 80 | ≥ 80 | ≥ 80 | ≥ 80 | ≥ 80 | – | – | – | – | ≥ 80 | – | –
10 | C[C@H](Nc1ncnc2c(Cl)cc(C(F)(F)F)cc12)c1ncnn1-c1ncccn1 [WO 21/083936 P.18, reference compound] | – | – | – | – | – | – | – | – | 40 | – | 0 | – | – | 65 | –
11 | C[C@H](Nc1ncnc2c(C(F)(F)F)cc(Cl)cc12)c1ncnn1-c1ncccn1 [WO 21/083936 P.24, reference compound] | – | – | – | – | – | – | – | – | – | – | 0 | – | – | 5 | 0
12 | CC(Nc1ncnc2c(Br)cc(Br)cc12)c1ncnn1-c1ncccn1 (centres unmarked) [WO 21/083936 P.29, reference compound] | – | – | – | – | – | – | – | – | 30 | 60 | 0 | – | – | – | –

— patent US20260132125A1, “PESTICIDALLY ACTIVE FUSED BICYCLIC HETEROAROMATIC COMPOUNDS” (priority 2022, published 2026)
